Reference: ChEMBL document CHEMBL5505960, “Synthesis and evaluation of butylphthalide-scutellarein hybrids as multifunctional agents for the treatment of Alzheimer's disease” (Eur J Med Chem, 2024)
The source made the active and inactive calls. The calls are words filed in the database; no cut-off is given here.

Assays:
PC-12 [1] = test: Neuroprotective activity against H2O2 induced rat PC12 cells assessed as increase in cell viability at 25 uM measured after 24 hrs by MTT assay relative to control; format: functional
BV-2 [2] = test: Antineuroinflammatory activity in LPS-induced mouse BV-2 cells assessed as inhibition of ROS production at 10 uM preincubated for 30 mins followed by LPS stimulation and measured after 8 hrs by DCFH-DA staining based analysis; format: functional, cell-based; conditions: time 8.5 hrs
BV-2 [3] = test: Antineuroinflammatory activity in LPS-induced mouse BV-2 cells assessed as inhibition of IL-1 beta release at 2.5 uM preincubated for 30 mins followed by LPS stimulation and measured after 24 hrs relative to control; format: functional; parameters: scale not given: the % may be the effect or the level left; conditions: time 24.5 hrs
Mus musculus [4] = test: Neuroprotective activity in Sodium nitrite induced cognition impairement in C57BL/6 mouse model assessed as increase in SOD activity administered daily as IG for 7 days; format: functional, organism-based; conditions: dose 1.1-9.9 mg/kg, time 7.0 day
HT-22 = test: Neuroprotective activity against amyloid beta (1 to 42)-induced cell injury in mouse HT-22 cells assessed as reversal of reduction in cell numbers at 2.5 to 10 uM measured after 24 hrs by MTT assay; format: functional, cell-based; conditions: dose 2.5-10 µM
[5] = Metal chelating activity assessed as compound-Cu2+ complex formation at stoichiometric ratio of 1:1 in presence of CuCl2 by UV-Vis spectrometry
Mus musculus [6] = test: Neuroprotective activity in Sodium nitrite induced cognition impairement in C57BL/6 mouse model assessed as reduction in number of error time at 1.1 to 9.9 mg/kg, IG administered daily for 7 days; format: functional, organism-based; conditions: dose 1.1-9.9 mg/kg, time 7.0 day
[7] = molecular target: Amyloid-beta precursor protein (Homo sapiens) (UniProt P05067); test: Inhibition of amyloid beta (1 to 42) (unknown origin) fibrillation assessed as decrease in thickness of amyloid beta fibrils at 25 uM measured after 24 hrs by TEM analysis
[8] = Tmax in Balb/C mouse plasma at 30 mg/kg, IG measured upto 8 hrs by LC-MS analysis; format: ADME, organism-based; conditions: po
BV-2 [9] = test: Antineuroinflammatory activity in LPS-induced mouse BV-2 cells assessed as inhibition of NO release at 2.5 uM preincubated for 30 mins followed by LPS stimulation and measured after 24 hrs relative to control; format: functional; parameters: scale not given: the % may be the effect or the level left; conditions: time 24.5 hrs
[10] = molecular target: Amyloid-beta precursor protein (Homo sapiens) (UniProt P05067); test: Inhibition of amyloid beta (1 to 42) (unknown origin) fibrillation assessed as reversal of A-beta 1-42 induced morphological changes at 25 uM measured after 24 hrs by TEM analysis
[11] = AUC (0 to t) in Balb/C mouse brain at 30 mg/kg, IG measured upto 8 hrs by LC-MS analysis; format: ADME, organism-based; conditions: in vivo, po
Mus musculus [12] = test: Neuroprotective activity in Sodium nitrite induced cognition impairement in C57BL/6 mouse model assessed as decrease in MAD level at 9.9 mg/kg, IG administered daily for 7 days; format: functional; conditions: time 7 day
BV-2 [13] = test: Cytotoxicity against mouse BV-2 cells at upto 10 uM measured after 24 hrs by MTT assay; format: toxicity, cell-based; conditions: bv-2, 24 h
BV-2 [14] = test: Antineuroinflammatory activity in LPS-induced mouse BV-2 cells assessed as inhibition of ROS production preincubated for 30 mins followed by LPS stimulation and measured after 8 hrs by DCFH-DA staining based analysis; format: functional, cell-based; conditions: dose 2.5-10 µM, time 8.5 hrs
Mus musculus [15] = test: Neuroprotective activity in Sodium nitrite induced cognition impairement in C57BL/6 mouse model assessed as improvement in step-down latency time at 1.1 to 9.9 mg/kg, IG administered daily for 7 days; format: functional, organism-based; conditions: dose 1.1-9.9 mg/kg, time 7.0 day
BV-2 [16] = test: Antineuroinflammatory activity in LPS-induced mouse BV-2 cells assessed as inhibition of IL-1 beta release at 0.5 uM preincubated for 30 mins followed by LPS stimulation and measured after 24 hrs relative to control; format: functional; parameters: scale not given: the % may be the effect or the level left; conditions: time 24.5 hrs
Mus musculus [17] = test: Neuroprotective activity against Abeta42 induced cognition impairement in AD mouse model assessed as reduction in number of error at 1.1 to 9.9 mg/kg, IG administered daily for 7 days by passive avoidance test; format: functional, organism-based; conditions: dose 1.1-9.9 mg/kg, time 7.0 day
Mus musculus [18] = test: Neuroprotective activity in C57BL/6 mouse assessed as amelioration of sodium nitrite induced memory impairement at 1.1 to 9.9 mg/kg, IG administered daily for 7 days; format: functional, organism-based; conditions: dose 1.1-9.9 mg/kg, time 7.0 day
PC-12 [19] = test: Cytotoxicity against rat PC12 cells at 25 uM measured after 24 hrs by MTT assay; format: functional, cell-based
[20] = molecular target: Amyloid-beta precursor protein (Homo sapiens) (UniProt P05067); test: Inhibition of Cu2+ induced amyloid beta (1 to 42)(unknown origin) fibrillation at 25 uM by ThT fluorescence assay relative to control
[21] = Cmax in Balb/C mouse plasma at 30 mg/kg, IG measured upto 8 hrs by LC-MS analysis; format: ADME, organism-based; conditions: po
[22] = Tmax in Balb/C mouse brain at 30 mg/kg, IG measured upto 8 hrs by LC-MS analysis; format: ADME, organism-based; conditions: po
[23] = Cmax in Balb/C mouse brain at 30 mg/kg, IG measured upto 8 hrs by LC-MS analysis; format: ADME, organism-based; conditions: po
[24] = molecular target: Amyloid-beta precursor protein (Homo sapiens) (UniProt P05067); test: Inhibition of amyloid beta (1 to 42) (unknown origin) fibrillation assessed as short amyloid beta fibrils at 25 uM measured after 24 hrs by TEM analysis
Mus musculus [25] = test: Neuroprotective activity against Abeta42 induced cognition impairement in AD mouse model assessed as alleviation of learning deficit administered daily as IG for 7 days by passive avoidance test; format: functional, organism-based; conditions: time 7.0 day
[26] = molecular target: Amyloid-beta precursor protein (Homo sapiens) (UniProt P05067); test: Inhibition of amyloid beta (1 to 42) (unknown origin) fibrillation assessed as reduction in Cu2+ induced shorter fibrils at 25 uM measured after 24 hrs by TEM analysis
[27] = molecular target: Amyloid-beta precursor protein (Homo sapiens) (UniProt P05067); test: Inhibition of amyloid beta (1 to 42) (unknown origin) fibrillation assessed as reduction in Cu2+ induced thick fibrils at 25 uM measured after 24 hrs by TEM analysis
PC-12 [28] = test: Neuroprotective activity against H2O2 induced rat PC12 cells assessed as increase in cell viability at 1 uM measured after 24 hrs by MTT assay relative to control; format: functional
[29] = Metal chelating activity assessed as compound-Cu2+ complex formation by measuring bathochromic shift at 301 to 345nm in the presence of CuCl2 by UV-Visible spectrophotometric analysis

Chain of Amyloid-beta precursor protein (Homo sapiens) (P05067 whole entry): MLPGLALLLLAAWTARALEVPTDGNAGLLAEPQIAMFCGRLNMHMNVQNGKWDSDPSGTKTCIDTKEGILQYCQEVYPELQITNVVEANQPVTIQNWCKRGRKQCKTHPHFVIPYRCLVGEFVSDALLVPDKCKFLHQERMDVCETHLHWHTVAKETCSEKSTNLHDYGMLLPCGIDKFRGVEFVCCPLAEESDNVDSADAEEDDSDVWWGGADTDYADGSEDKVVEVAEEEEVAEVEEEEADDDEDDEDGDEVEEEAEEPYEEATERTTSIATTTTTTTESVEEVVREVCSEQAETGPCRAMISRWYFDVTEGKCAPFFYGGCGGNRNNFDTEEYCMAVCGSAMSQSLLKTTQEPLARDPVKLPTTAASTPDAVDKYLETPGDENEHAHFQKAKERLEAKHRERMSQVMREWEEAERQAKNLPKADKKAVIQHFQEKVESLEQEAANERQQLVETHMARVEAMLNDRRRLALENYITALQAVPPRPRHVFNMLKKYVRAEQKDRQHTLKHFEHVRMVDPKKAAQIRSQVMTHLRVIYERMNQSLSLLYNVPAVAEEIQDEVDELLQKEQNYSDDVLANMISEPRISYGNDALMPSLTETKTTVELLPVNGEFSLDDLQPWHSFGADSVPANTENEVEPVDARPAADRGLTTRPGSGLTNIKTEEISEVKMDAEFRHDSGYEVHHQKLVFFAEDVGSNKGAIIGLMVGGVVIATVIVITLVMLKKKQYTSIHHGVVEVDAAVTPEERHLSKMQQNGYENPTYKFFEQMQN

With `CCCCCC1OC(=O)c2c1cc(OC)c(O)c2O` (stereo not given) the Activity (PC-12 [1]) was 83.9%, the Activity (BV-2 [2]) was “Active” and the Activity (BV-2 [3]) was 49.2%. The Activity (Mus musculus [4]) was “Dose-Dependent Effect”, the Activity (HT-22) was “Active” and the Activity [5] was “Active”. The Activity (Mus musculus [6]) was “Active”, the inhibition [7] was “Active” and the Tmax [8] was 15 min. For the same molecule, the Activity (BV-2 [9]) was 47%, the inhibition [10] was “Active” and the AUCt [11] was 681.3 ng·h/g. The Activity (Mus musculus [12]) was 2.8 nmol/mg, the Activity (BV-2 [13]) was “Non-Toxic” and the Activity (BV-2 [14]) was “Dose-Dependent Effect”. For the same molecule, the Activity (Mus musculus [15]) was “Active”, the Activity (BV-2 [16]) was 36.6% and the Activity (Mus musculus [17]) was “Active”. The Activity (Mus musculus [18]) was “Active”, the Activity (PC-12 [19]) was “inactive” and the inhibition [20] was 35.4%. The Cmax [21] was 879 ng/mL, the Tmax [22] was 30 min and the Cmax [23] was 337 ng/mL. For the same molecule, the inhibition [24] was “Active”, the Activity (Mus musculus [25]) was “Dose-Dependent Effect” and the inhibition [26] was “Active”. The inhibition [27] was “Active”, the Activity (PC-12 [28]) was 68.1% and the Activity [29] was “Active”.
